From patent US10834943B2, “Organic compounds having taste-modifying properties” (GIVAUDAN SA, priority 2013, dated 2020)

Test: Mango-flavoured beverage evaluated by a panel of experienced tasters
Conditions: 0.5 ppm dosed to mango drink (mango flavour 0.05% w/w, mango juice 0.18% w/w, sugar 8% w/w, citric acid 0.1% w/w)
Description: A mango-flavoured beverage was prepared using a standard mango flavour (0.05% w/w), mango juice (0.18% w/w), sugar (8% w/w) and citric acid (0.1% w/w).

For CCCCC/C=C\C/C=C\CCCCCCCC(=O)N1CCCC1C(=O)OC (centres unmarked) [Example 6, Methyl 1-((9Z,12Z)-octadeca-9,12-dienoyl)pyrrolidine-2-carboxylate], the “taste of the mango drink versus the reference drink (panel agreement)” value was “more fruity and peach-like than the reference drink”.
For CC/C=C\C/C=C\C/C=C\CCCCCCCC(=O)NC(C)C(=O)OC (centres unmarked) [Example 7, Methyl 2-((9Z,12Z,15Z)-octadeca-9,12,15-trienamido)propanoate], the “taste of the mango drink versus the reference drink (panel agreement)” value was “more fully, more fatty than the reference drink”.
